Assay results published in patent publication US20250327043A1, “ALCOHOL ACYLTRANSFERASE AND A […], TISSUE, AND ORGANISM COMPRISING SAME” (YEDA RESEARCH AND DEVELOPMENT CO. LTD., priority 2022, published 2025).
Entries after “also recorded” stand apart in the source; their conditions may differ.

T1: TRPV3 ion channel (Homo sapiens, UniProt Q8NET8)
T1 sequence (Q8NET8 1-790): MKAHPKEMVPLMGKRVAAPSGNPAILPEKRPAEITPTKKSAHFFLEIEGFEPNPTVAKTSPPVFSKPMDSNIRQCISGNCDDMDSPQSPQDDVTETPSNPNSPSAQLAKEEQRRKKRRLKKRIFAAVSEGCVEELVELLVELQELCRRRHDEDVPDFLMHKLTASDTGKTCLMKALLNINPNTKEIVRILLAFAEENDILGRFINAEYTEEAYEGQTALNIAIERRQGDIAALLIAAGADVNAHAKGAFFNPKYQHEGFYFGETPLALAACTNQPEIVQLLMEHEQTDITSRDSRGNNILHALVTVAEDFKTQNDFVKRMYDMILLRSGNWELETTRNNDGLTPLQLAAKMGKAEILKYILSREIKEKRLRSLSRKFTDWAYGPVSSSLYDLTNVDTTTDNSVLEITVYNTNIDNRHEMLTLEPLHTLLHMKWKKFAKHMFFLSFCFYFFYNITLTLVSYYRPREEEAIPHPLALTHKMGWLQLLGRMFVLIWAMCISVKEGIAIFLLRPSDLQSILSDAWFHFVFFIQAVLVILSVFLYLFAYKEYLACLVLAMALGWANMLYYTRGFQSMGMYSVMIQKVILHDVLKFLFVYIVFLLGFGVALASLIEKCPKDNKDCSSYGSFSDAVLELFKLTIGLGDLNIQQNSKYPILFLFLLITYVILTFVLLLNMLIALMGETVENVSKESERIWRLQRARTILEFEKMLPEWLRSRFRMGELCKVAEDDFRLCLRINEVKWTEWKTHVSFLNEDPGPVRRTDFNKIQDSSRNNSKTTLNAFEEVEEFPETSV

B1: HuAAT14: BAHD alcohol acyltransferase from Helichrysum umbraculigerum, recombinantly expressed in E. coli, SEQ ID NO: 30 (protein, listed as Helichrysum umbraculigerum)
chain: MGTIYQSPMIKSSTPKIIEDLKVIIHDTFTIFPPHETEKRSMFLSNIDQVLTFNVETVHFFAANPDFPPQVVAEKLKLALSKALVPYDFLAGRLKLNHESQRFEFDCNGAGARFVVGSSEFELGEIGDLVYPNPGFRQLVQKSYDNLELHEKPLCILQLTSFKCGGFALGVATNHATFDGLSFKTFLQNLGSLAADQPLAVDPCNDRHLLAARSPPKVQFDHPELLKIPTGTDIPNPTVFDCPESQLDFKIFNLTSDDIAHLKTKAKDGPGSTNAKITGFNVVAAHVWRCKALSSGSEYDPERVSTVLYAVDIRSRLNLPLSLAGNAVLSAYASAKCKEIEEGPLSRLVEMVTEGTNRMTGEYARSVIDWGEVNKGFPNGEFLISSWWRLGFADVEYPWGKPRYSCPVVYHRKDIILLFPDIVGADNNNEVNVLVALPGKEMEKFETLFHKFLA
B2: HuAAT5: BAHD alcohol acyltransferase from Helichrysum umbraculigerum, recombinantly expressed in E. coli, SEQ ID NO: 19 (protein, listed as Helichrysum umbraculigerum)
chain: MPSSSSSPSSTADSVTIISKCTVYPHMKNSTPESLQLSVSDLPMLSCQYIQKGVLLSQPPPNHTNNIISHLKLSLSKTLSHFPPLAGRLSTDSHGHVSIICNDSGVEFVHSTANHLHTHQILPLNSDVHPCFKTFFAFDKTLSYAGHHQPIAAVQVTELADGLFIGCTVNHAVVDGTSFWNFFNTFAEITKGCQKVTNLPDFSRENVFISPVVLPLPSGGPSATFSGDEPLRERIIHFSRDAILKMKFRANNPLWRQPQNSDLDDTEIYGKVCNDINGKVNGAFKPKSEISSFQSLCGQLWRAVTRARKFNDPIKTTTFRMAVNCRHRLDPKVDKLYFGNLIQSIPTVASVGELLSHDLSWAANELHQNVVAHDNATVRRGVKDWENNPKLFPLGNFDGAMITMGSSPRFPMYNNDFGWGRPMAVRSGKANKFDGKISAFPGRDGDGSVDLEVVLAPETMACLERDHEFMQYVS

What was measured:
HuAAT5 = assay: AAT enzyme assay with the purified HuAAT5 enzyme; assay type: biochemical, Helichrysum umbraculigerum; details: acyl donors acetyl-, iso-butyryl-, iso-valeryl- or hexanoyl-CoA, 30° C., 3 h, pH 7.4
Protocol: (§1) Selected AAT genes from Helichrysum were individually cloned into the pET28b vector and expressed in E. coli BL21 (DE3) cells. Bacterial cells were grown overnight in LB medium at 37° C., diluted in fresh LB 1:100, and re-incubated at 37° C. When cultures reached A600=0.6, protein expression was induced with 400 μM of isopropyl-1-thio-β-d-galactopyranoside (IPTG) overnight at 15° C. Bacterial cells were lysed by sonication in 50 mM Tris-HCl pH 8, 0.5 mM phenylmethylsulfonyl fluoride (PMSF, Sigma Aldrich) solution in isopropanol, 10% glycerol and protease inhibitor cocktail (Sigma Aldrich), and 1 mg ml-1 lysozyme (Sigma Aldrich). The whole-cell extract was either kept for functional activity or used for protein purification. Purification of proteins was performed on Ni-NTA agarose beads (Adar Biotech). The proteins were eluted with 200 mM imidazole (Fluka) in a buffer containing 50 mM NaH2PO4, pH 8, and 0.5 M NaCl. Protein concentration of the eluted fractions was measured with Pierce™ 660 nm protein assay reagent (Thermo Scientific).
(§2) Recombinant AAT assays with the enzyme solutions using different donor and acceptor substrates were performed by mixing 7 μl of the cannabinoid acceptors (OA, CBGA, or heliCBGA, 1 mg ml^−1) with 58 μl of a potassium phosphate buffer (100 mM, pH 7.4) and incubating the mixture at 30° C. for 10 min. Next, 5 μl of the acyl-CoA donors (butyryl-CoA, hexanoyl-CoA, iso-valeryl-CoA, or acetyl-CoA, 10 mM) and 30 μl of the enzyme solutions were added. The reactions were incubated at 30° C. for 3 h. To stop the reactions, 100 μl ethanol was added to each tube, vortexed for 10 s, centrifuged at maximum speed for 10 min, and then the supernatant was recovered and used for UPLC-qTOF analysis. The assay with the purified HuAAT5 enzyme was performed by mixing 2 μl of the cannabinoid acceptors (OA, CBGA, heliCBGA, CBDA, Δ^9-THCA or CBCA) with 2 μl of the acyl-CoA donors (butyryl-CoA, iso-butyryl-CoA, hexanoyl-CoA, iso-valeryl-CoA, or acetyl-CoA, 10 mM), 44 μl of a potassium phosphate buffer (100 mM, pH 7.4), and 2 μl of the purified HuAAT5 enzyme solution. The reactions were incubated at 30° C. for 3 h. To stop the reactions, 50 μl ethanol was added to each tube and the acylated compounds were extracted and analyzed as previously described.

TRPV3 ion channel = target: T1, TRPV3 ion channel; details: cited from earlier work
[1] = Activity of E. coli lysates containing recombinant HuAATs (AAT enzyme assay, UPLC-qTOF readout); assay type: biochemical, Helichrysum umbraculigerum; details: for acyltransferase activity of lysate towards the substrates: butyryl-CoA and hexanoyl-CoA as acyl donors, CBGA and heliCBGA as acceptors, 30° C., 3 h
Protocol: as §1
as §2, with “The assay with the purified HuAAT5 enzyme was performed by mixing 2 μl of the cannabinoid acceptors (OA, CBGA, heliCBGA, CBDA, Δ^9-THCA or CBCA) with 2 μl of the acyl-CoA donors (butyryl-CoA, iso-butyryl-CoA, hexanoyl-CoA, iso-valeryl-CoA, or acetyl-CoA, 10 mM), 44 μl of a potassium phosphate buffer (100 mM, pH 7.4), and 2 μl of the purified HuAAT5 enzyme solution. The reactions were incubated at 30° C. for 3 h.” left out

| Molecule | acylation of the cannabinoid acceptor by purified HuAAT5 (HuAAT5) | further results |
| --- | --- | --- |
| CCCCCc1cc2c(c(O)c1C(=O)O)[C@@H]1C=C(C)CC[C@H]1C(C)(C)O2 (relative stereo) [Δ^9-THCA, (−)-trans-Δ^9-tetrahydrocannabinolic acid] | inactive |  |
| CCCCCc1cc2c(c(O)c1C(=O)O)C=CC(C)(CCC=C(C)C)O2 (stereo not shown) [CBCA, cannabichromenic acid] | inactive |  |
| C=C(C)[C@@H]1CCC(C)=C[C@H]1c1c(O)cc(CCCCC)c(C(=O)O)c1O [CBDA, cannabidiolic acid] | successfully acylated |  |
| CCCCCc1cc(O)c(C/C=C(\C)CCC=C(C)C)c(O)c1C(=O)O [CBGA, cannabigerolic acid] | successfully acylated |  |
| CCC(C)C(=O)Oc1cc(CCc2ccccc2)cc(O)c1CC=C(C)C (stereo not shown) [O-methylbutyryl deprenylhelycannabigenol] |  | affinity for the ionotropic TRPV3 ion channel (TRPV3 ion channel): sub-micromolar |
| CCCCCc1cc(O)cc(O)c1C(=O)O [OA, Olivetolic acid] | successfully acylated |  |
| CC(C)=CCCC(C)=CCc1c(O)cc(CCc2ccccc2)c(C(=O)O)c1O [heliCBGA, helicannabigerolic acid] | successfully acylated |  |
| B1 |  | acyltransferase activity of lysate towards the substrates [1]: showed activity towards all of these substrates; also recorded: acylated the cannabinoids with both acyl-CoAs |
| B2 |  | amounts of products catalyzed, compared between the two active enzymes ([1]; HuAAT5 versus HuAAT14): considerably greater amounts of products; acyltransferase activity of lysate towards the substrates [1]: showed activity towards all of these substrates; also recorded: acylated the cannabinoids with both acyl-CoAs |
